From patent US20240368135A1 (VERTEX PHARMACEUTICALS INCORPORATED, priority 2021, published 2024)

molecular target: human NaV 1.8 (Homo sapiens, UniProt Q9Y5Y9); test: E-VIPR assay detecting and measuring NaV inhibition properties; format: cell-based; conditions: HEK cells expressing truncated human NaV 1.8; in the presence of human serum (compound numbers followed by *); read-out: IC50 in the E-VIPR Assay, performed in the presence of human serum
Method in brief: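 HEK cells expressing truncated, fully active human NaV1.8, with KIR2.1 BacMam co-transduction, were loaded with CC2-DMPE/DiSBAC6(3) voltage-sensing dyes for 20 min at room temperature. Compounds were tested in 11-point 3-fold dilutions (300 nM top final), optionally with 25% human serum, under electrical stimulation with FRET read-out.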

human NaV 1.8, sequence (Q9Y5Y9 126-399 limits assumed): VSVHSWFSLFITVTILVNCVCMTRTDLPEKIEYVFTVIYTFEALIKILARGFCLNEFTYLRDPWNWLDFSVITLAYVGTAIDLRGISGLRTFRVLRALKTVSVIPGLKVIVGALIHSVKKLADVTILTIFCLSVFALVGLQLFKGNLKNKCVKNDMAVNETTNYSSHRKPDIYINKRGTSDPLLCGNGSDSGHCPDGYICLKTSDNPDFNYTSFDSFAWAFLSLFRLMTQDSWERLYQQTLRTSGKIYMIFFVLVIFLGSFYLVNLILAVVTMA
human NaV 1.8, sequence (Q9Y5Y9 660-890 limits assumed): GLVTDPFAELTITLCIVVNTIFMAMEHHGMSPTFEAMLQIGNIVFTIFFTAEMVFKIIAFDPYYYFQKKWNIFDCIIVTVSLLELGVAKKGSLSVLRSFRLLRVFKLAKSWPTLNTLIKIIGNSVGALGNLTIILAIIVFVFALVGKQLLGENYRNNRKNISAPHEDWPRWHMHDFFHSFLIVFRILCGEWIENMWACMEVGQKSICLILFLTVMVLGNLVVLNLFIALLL
human NaV 1.8, sequence (Q9Y5Y9 1148-1722 limits assumed): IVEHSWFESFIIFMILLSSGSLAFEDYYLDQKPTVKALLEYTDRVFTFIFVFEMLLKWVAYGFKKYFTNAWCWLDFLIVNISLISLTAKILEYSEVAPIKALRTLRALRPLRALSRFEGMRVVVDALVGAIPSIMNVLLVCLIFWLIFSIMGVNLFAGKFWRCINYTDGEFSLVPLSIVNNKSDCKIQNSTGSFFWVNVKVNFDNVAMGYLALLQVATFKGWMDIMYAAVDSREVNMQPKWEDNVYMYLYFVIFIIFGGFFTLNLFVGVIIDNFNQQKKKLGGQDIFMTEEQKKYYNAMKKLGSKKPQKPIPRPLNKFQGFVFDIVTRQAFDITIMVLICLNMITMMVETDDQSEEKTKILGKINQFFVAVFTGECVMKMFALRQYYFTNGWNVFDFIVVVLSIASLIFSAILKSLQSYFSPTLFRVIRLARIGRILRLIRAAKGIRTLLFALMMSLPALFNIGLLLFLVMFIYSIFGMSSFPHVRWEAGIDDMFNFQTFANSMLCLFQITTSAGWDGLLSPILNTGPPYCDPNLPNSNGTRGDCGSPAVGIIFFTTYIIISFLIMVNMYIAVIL

Row | SMILES | IC50 [nM]
1 | COc1c(C2C(C(=O)Nc3ccnc(S(C)(=O)=O)c3)OC(C)(C(F)(F)F)C2C)ccc(F)c1F (single isomer, unassigned) [Compound 49, 3-(3,4-difluoro-2-methoxy-phenyl)-4,5-dimethyl-N-(2-methylsulfonyl-4-pyridyl)-5-(trifluoromethyl)tetrahydrofuran-2-carboxamide] | ≥ 1000
2 | COc1c([C@@H]2C[C@](C)(C(F)(F)F)O[C@H]2C(=O)Nc2ccnc([C@H](O)[C@@H](C)O)c2)ccc(F)c1F (stereo in doubt) [Compound 699, rel-(2R,3S,5R)-3-(3,4-difluoro-2-methoxyphenyl)-N-(2-((1S,2R)-1,2-dihydroxypropyl)pyridin-4-yl)-5-methyl-5-(trifluoromethyl)tetrahydrofuran-2-carboxamide] | 10 to 100

same assay, conditions: HEK cells expressing truncated human NaV 1.8; no human serum; read-out: IC50 in the E-VIPR Assay

Row | SMILES | IC50 [nM]
3 | COc1c([C@H]2[C@H](C(=O)Nc3ccc(C(N)=O)nc3)O[C@@](C)(C(F)(F)F)[C@H]2C)cc(O)c(F)c1F [Compound 733, 5-((2R,3S,4S,5R)-3-(3,4-difluoro-5-hydroxy-2-methoxyphenyl)-4,5-dimethyl-5-(trifluoromethyl)tetrahydrofuran-2-carboxamido)picolinamide] | < 10
4 | COc1c([C@H]2[C@H](C(=O)Nc3ccc(C(F)F)nc3)O[C@@](C)(C(F)(F)F)[C@H]2C)ccc(F)c1C(F)F (single isomer, unassigned) [Compound 165] | 10 to 100
5 | COc1c([C@H]2[C@H](C(=O)Nc3ccc4nc(C(N)=O)nn4c3)O[C@@](C)(C(F)(F)F)[C@H]2C)ccc(F)c1F [Compound 16] | 10 to 100
6 | Cc1oncc1NC(=O)C1OC(C)(C(F)(F)F)C(C)C1c1ccc(F)c(F)c1OC1CC(O)C1 [Compound 656, (2R,3S,4S,5R)-3-(3,4-difluoro-2-((1S,3R)-3-hydroxycyclobutoxy)phenyl)-4,5-dimethyl-N-(5-methylisoxazol-4-yl)-5-(trifluoromethyl)tetrahydrofuran-2-carboxamide] | 10 to 100
7 | COc1c([C@H]2[C@H](C(=O)Nc3cc(C(O)CN4CCOCC4)ncc3F)O[C@@](C)(C(F)(F)F)[C@H]2C)ccc(F)c1F (single isomer, unassigned) [Compound 371, rel-(2R*,3S*,4S*,5R*)-3-(3,4-difluoro-2-methoxyphenyl)-N-(5-fluoro-2-(1-hydroxy-2-morpholinoethyl)pyridin-4-yl)-4,5-dimethyl-5-(trifluoromethyl)tetrahydrofuran-2-carboxamide] | 10 to 100
8 | COc1c([C@H]2[C@H](C(=O)Nc3cc(C4(N)COC4)ncc3F)O[C@@](C)(C(F)(F)F)[C@H]2C)ccc(F)c1F [Compound 341, (2R,3S,4S,5R)-N-(2-(3-aminooxetan-3-yl)-5-fluoropyridin-4-yl)-3-(3,4-difluoro-2-methoxyphenyl)-4,5-dimethyl-5-(trifluoromethyl)-tetrahydrofuran-2-carboxamide] | < 10
9 | C[C@@H]1CN(C)CC(=O)N1c1cc(NC(=O)[C@@H]2O[C@@](C)(C(F)(F)F)[C@@H](C)[C@H]2c2ccc(F)c(F)c2OCCO)ccn1 [Compound 653, (2R,3S,4S,5R)-3-(3,4-difluoro-2-(2-hydroxyethoxy)phenyl)-N-(2-((R)-2,4-dimethyl-6-oxopiperazin-1-yl)pyridin-4-yl)-4,5-dimethyl-5-(trifluoromethyl)tetrahydrofuran-2-carboxamide] | 10 to 100
10 | C[C@H]1[C@@H](c2ccc(F)c(F)c2OC(F)F)[C@H](C(=O)Nc2ccc(C(N)=O)cc2)O[C@@]1(C)C(F)(F)F (stereo in doubt) [Compound 74, rel-(2R,3S,4S,5R)-N-(4-carbamoylphenyl)-3-(2-(difluoromethoxy)-3,4-difluorophenyl)-4,5-dimethyl-5-(trifluoromethyl)tetrahydrofuran-2-carboxamide] | < 10
11 | CCS(=O)(=O)c1cc(NC(=O)C2OC(C)(C(F)(F)F)C(C)C2c2ccc(F)c(F)c2OC)ccn1 (single isomer, unassigned) [Compound 52, 3-(3,4-difluoro-2-methoxy-phenyl)-N-(2-ethylsulfonyl-4-pyridyl)-4,5-dimethyl-5-(trifluoromethyl)tetrahydrofuran-2-carboxamide] | ≥ 1000
12 | COc1c([C@H]2[C@H](C(=O)Nc3ccnc(O[C@@H]4COC[C@@H]4O)c3)O[C@@](C)(C(F)(F)F)[C@H]2C)ccc(F)c1F (single isomer, unassigned) [Compound 239, rel-(2R*,3S*,4S*,5R*)-3-(3,4-difluoro-2-methoxyphenyl)-N-(2-(((3R,4S)-4-hydroxytetrahydrofuran-3-yl)oxy)pyridin-4-yl)-4,5-dimethyl-5-(trifluoromethyl)tetrahydrofuran-2-carboxamide] | < 10
13 | COc1c([C@H]2[C@H](C(=O)Nc3ccnc(CN(C)C)c3)O[C@@](C)(C(F)(F)F)[C@H]2C)ccc(F)c1F [Compound 183, (2R,3S,4S,5R)-3-(3,4-difluoro-2-methoxyphenyl)-N-(2-((dimethylamino)methyl)pyridin-4-yl)-4,5-dimethyl-5-(trifluoromethyl)tetrahydrofuran-2-carboxamide] | < 10
14 | C[C@H]1[C@@H](c2ccc(F)c(F)c2OCC2COC2)[C@H](C(=O)Nc2ccc(C(N)=O)nc2)O[C@@]1(C)C(F)(F)F [Compound 580, 5-((2R,3S,4S,5R)-3-(3,4-difluoro-2-(oxetan-3-ylmethoxy)phenyl)-4,5-dimethyl-5-(trifluoromethyl)tetrahydrofuran-2-carboxamido)picolinamide] | < 10
15 | C=C(CO)COc1c([C@H]2[C@H](C(=O)Nc3ccc4cnnn4c3)O[C@@](C)(C(F)(F)F)[C@H]2C)ccc(F)c1F [Compound 622, (2R,3S,4S,5R)-3-[3,4-difluoro-2-[2-(hydroxymethyl)allyloxy]phenyl]-4,5-dimethyl-N-(triazolo[1,5-a]pyridin-6-yl)-5-(trifluoromethyl)tetrahydrofuran-2-carboxamide] | < 10
16 | COCn1cnc(NC(=O)[C@@H]2O[C@@](C)(C(F)(F)F)[C@@H](C)[C@H]2c2ccc(F)c(F)c2OCCO)n1 [Compound 553, (2R,3S,4S,5R)-3-(3,4-difluoro-2-(2-hydroxyethoxy)phenyl)-N-(1-(methoxymethyl)-1H-1,2,4-triazol-3-yl)-4,5-dimethyl-5-(trifluoromethyl)tetrahydrofuran-2-carboxamide] | ≥ 1000
17 | COc1c([C@H]2[C@H](C(=O)Nc3ccnc(N4CCN[C@@H](C)C4=O)c3)O[C@@](C)(C(F)(F)F)[C@H]2C)ccc(F)c1F [Compound 485, (2R,3S,4S,5R)-3-(3,4-difluoro-2-methoxyphenyl)-4,5-dimethyl-N-(2-((S)-3-methyl-2-oxopiperazin-1-yl)pyridin-4-yl)-5-(trifluoromethyl)tetrahydrofuran-2-carboxamide] | < 10
18 | COc1c([C@H]2[C@H](C(=O)Nc3ccnc(N4C[C@H]5C[C@@H](C4=O)N5C)c3)O[C@@](C)(C(F)(F)F)[C@H]2C)ccc(F)c1F (single isomer, unassigned) [Compound 509, rel-(2R*,3S*,4S*,5R*)-3-(3,4-difluoro-2-methoxyphenyl)-4,5-dimethyl-N-(2-((1S,5R)-6-methyl-2-oxo-3,6-diazabicyclo[3.1.1]heptan-3-yl)pyridin-4-yl)-5-(trifluoromethyl)tetrahydrofuran-2-carboxamide] | 10 to 100
